Measured values as given in article PMC12078333, “Pharmacokinetic evaluation and bioavailability of KPT-335 (Verdinexor) in cats” (Frontiers in Veterinary Science, 2025).
Where “and” joins values, the source holds several entries; their conditions need not be identical. Identical values can stand only once. Like-named read-outs stand apart in the source and are kept apart here.

Assay: Pharmacokinetics study of KPT-335 in cats (i.v. injection, p.o. capsules and tablets; UPLC-MS/MS, non-compartmental analysis)
Assay type: in vivo
Settings: cats; for bioavailability / k el / Tmax / MRT last / AUC(0-inf) / AUC(0-t) / Cmax: both sexes, plasma, po; for k el: read-out: Lambda_z (converted); for Tmax: read-out: Tmax; for AUC(0-inf): read-out: AUCINF_obs; for AUC(0-t): read-out: AUClast; for Cmax: read-out: Cmax; for Plasma concentration: individual cats 1-6
Experimental: In this study, a parallel trial design was employed, 42 adult domestic cats (21 males and 21 females), aged 1 to 2 years and weighing 2.5 ± 0.25 kg. Cats were grouped by random number, with half male and female in each group, and all cats were determined to be systemically healthy during an initial screening visit 1 week prior to the experiment. They were acclimatized to the laboratory environment for 7 days before the study commenced. During this period, they were kept in solitary cages with free access to water. Cats in the fasting group were deprived of food for 12 h prior to and 2 h following drug administration, while those in the feeding group were fed twice a day. Food and water sources were consistent throughout the trail. During and at the end of the experiment, we systematically assessed the adverse reactions by recording parameters such as body weight, behavior, and coat gloss in all test cats both before and after the trial. These observations were conducted to evaluate whether any adverse reactions occurred. All procedures were reviewed and approved by the Institutional Animal Care and Use Committee of China Agricultural University (11305-23-E-002).
The UPLC-MS/MS system utilized a UPLC 1290 (Agilent) paired with a Phenomenex Kinetex C18 column (50 mm × 2.1 mm, 2.6 μm) for separation at a flow rate of 0.3 mL/min. The chromatographic mobile phase comprised water (A) and acetonitrile (B), both containing 0.1% formic acid. The gradient elution program was as follows: from 0.5 to 2.5 min, 10 to 95% B; from 2.5 to 4.5 min, 95% B; from 4.5 to 4.6 min, 95 to 10% B; and from 4.6 to 6.0 min, 10% B. The injection volume was 2 μL.
For mass spectrometry, an Agilent 6,475-LC-TQ equipped with an electrospray ion source was used. Multiple Reaction Monitoring (MRM) was selected to quantify KPT-335 in the positive ion mode. The ion transitions monitored were m/z 443.1 → 334.0 and 443.1 → 110.1 for KPT-335, and m/z 444.1 → 334.0 for the internal standard (IS). The cone voltage and collision energy were optimized for KPT-335 and the IS individually, set at 160 V and 25 eV, respectively. The optimized parameters for the instrument included an ion source temperature of 350°C, solvent removal temperature of 320°C, capillary voltage of 3.0 kV, and a solvent gas flow rate of 300 L/h.
The method was developed based on prior research conducted in the laboratory ([16]) and validated in accordance with international guidelines ([17]). The calibration concentration range for KPT-335 spanned from 0.5 to 100 ng/mL, with a lower limit of quantification (LLOQ) set at 0.5 ng/mL. The squared correlation coefficient (R^2) values exceeded 0.999, indicating high linearity.
For sample preparation, 100 μL of plasma was mixed with 10 μL of internal standard (IS) and 900 μL of acetonitrile, followed by vortexing for 2 min. The mixture was then centrifuged at 13,400 × g at 4°C for 10 min. The supernatant was filtered through a 0.22 μm organic membrane, and the resulting sample was analyzed using UPLC-MS/MS.
Cats were divided into seven groups, with six cats in each group. In the intravenous (i.v.) group (Group 1), cats received an injection of KPT-335 at a dosage of 1 mg/kg body weight (BW), administered via a bolus through a venous infusion needle. For the oral (p.o.) administration, cats were given capsules in a fasting state at doses of 0.2 mg/kg BW (Group 2), 1 mg/kg BW (Group 3), and 2 mg/kg BW (Group 4). Additionally, tablets were administered at 1 mg/kg BW (fasting, Group 5), 1 mg/kg BW (Group 6), and 2 mg/kg BW (Group 7) in a feeding state, followed by 3 mL of water delivered with a syringe.
For the p.o. administration, blood samples of 1.5 mL were collected via the brachial cephalic vein prior to administration and at 0.167, 0.333, 0.5, 0.75, 1, 1.5, 2, 4, 6, 8, 12, 24, 32, and 48 h post-administration. […]

[1] = 0.2 mg/kg, p.o., Capsule, Fasting, 0.2 mg/kg BW
[2] = 1 mg/kg, p.o., Capsule, Fasting, 1 mg/kg BW
[3] = 1 mg/kg, p.o., Tablet, Fasting, 1 mg/kg BW
[4] = 1 mg/kg, p.o., Tablet, Feeding, 1 mg/kg BW
[5] = 2 mg/kg, p.o., Capsule, Fasting, 2 mg/kg BW
[6] = 2 mg/kg, p.o., Tablet, Feeding, 2 mg/kg BW
[7] = capsule group, 0.2–2 mg/kg BW, reference 95% CI 0.90–1.10

O=C(/C=C\n1cnc(-c2cc(C(F)(F)F)cc(C(F)(F)F)c2)n1)NNc1ccccn1 [KPT-335]
bioavailability (0.2 mg/kg, p.o., Capsule, Fasting, 0.2 mg/kg BW, read-out: F (absolute bioavailability)): 43.7%
k el [1]: 3.33e-05 s⁻¹
Tmax [1]: 2.46 ± 2.75 h
MRT last (1 mg/kg, Capsule, Fasting, 1 mg/kg BW): 5.94 ± 1.05 h
MRT last (1 mg/kg, Tablet, Fasting, 1 mg/kg BW): 8.07 ± 1.73 h
MRT last (1 mg/kg, Tablet, Feeding, 1 mg/kg BW): 5.8 ± 1.61 h
bioavailability (1 mg/kg, doses of 1 mg/kg BW, read-out: bioavailability of commercial tablets): ~70%
AUC(0-inf) [2]: 1420 ± 490 ng·h/mL
AUC(0-t) [2]: 1420 ± 489 ng·h/mL
Cmax [2]: 260 ± 75 ng/mL
bioavailability (1 mg/kg, p.o., Capsule, Fasting, 1 mg/kg BW, read-out: F (absolute bioavailability)): 44.7%
k el [2]: 3.61e-05 s⁻¹
Tmax [2]: 1.25 ± 0.39 h
AUC(0-inf) [3]: 2430 ± 805 ng·h/mL
AUC(0-t) [3]: 2410 ± 793 ng·h/mL
Cmax [3]: 264 ± 129 ng/mL
bioavailability (1 mg/kg, p.o., Tablet, Fasting, 1 mg/kg BW, read-out: F (absolute bioavailability)): 75.9%
k el [3]: 3.61e-05 s⁻¹
Tmax [3]: 1.79 ± 1.17 h
AUC(0-inf) [4]: 2270 ± 1260 ng·h/mL
AUC(0-t) [4]: 2250 ± 1260 ng·h/mL
Cmax [4]: 364 ± 145 ng/mL
bioavailability (1 mg/kg, p.o., Tablet, Feeding, 1 mg/kg BW, read-out: F (absolute bioavailability)): 71%
k el [4]: 5e-05 s⁻¹
Tmax [4]: 1.33 ± 0.41 h
MRT last (2 mg/kg, Capsule, Fasting, 2 mg/kg BW): 7.57 ± 1.94 h
MRT last (2 mg/kg, Tablet, Feeding, 2 mg/kg BW): 5.07 ± 0.69 h
AUC(0-inf) [5]: 1850 ± 819 ng·h/mL
AUC(0-t) [5]: 1840 ± 819 ng·h/mL
Cmax [5]: 280 ± 175 ng/mL
bioavailability (2 mg/kg, p.o., Capsule, Fasting, 2 mg/kg BW, read-out: F (absolute bioavailability)): 28.9%
k el [5]: 2.78e-05 s⁻¹
Tmax [5]: 1.58 ± 0.38 h
AUC(0-inf) [6]: 3010 ± 715 ng·h/mL
AUC(0-t) [6]: 3000 ± 711 ng·h/mL
Cmax [6]: 559 ± 104 ng/mL
bioavailability (2 mg/kg, p.o., Tablet, Feeding, 2 mg/kg BW, read-out: F (absolute bioavailability)): 47.3%
k el [6]: 5.83e-05 s⁻¹
Tmax [6]: 1.58 ± 0.2 h
bioavailability (doses of 0.2–1 mg/kg BW, read-out: absolute bioavailability of capsules): ~40%
dose linearity of pharmacokinetics (0.2–2 mg/kg BW dosage range): not to exhibit linear pharmacokinetics
differences in pharmacokinetic parameters (Cmax and AUClast) between male and female cats (all groups): no statistically significant differences
95% confidence interval of β, dose vs AUClast [7]: 0.63–1.11
95% confidence interval of β, dose vs Cmax [7]: 0.79–1.30
Plasma concentration (capsule p.o. 0.2 mg/kg BW, 1.5 h, 0.2 mg/kg, in ng/mL): 15.20 and 20.46 and 38.22 and 14.31 and 22.72 and 26.72
Plasma concentration (capsule p.o. 0.2 mg/kg BW, 2 h, 0.2 mg/kg, in ng/mL): 13.60 and 18.16 and 33.66 and 26.22 and 20.79 and 22.21
Plasma concentration (capsule p.o. 0.2 mg/kg BW, 4 h, 0.2 mg/kg): 8.71 ng/mL
Plasma concentration (capsule p.o. 0.2 mg/kg BW, 4 h, 0.2 mg/kg, in ng/mL): 14.86 and 24.97 and 21.41 and 17.43 and 19.90
Plasma concentration (capsule p.o. 0.2 mg/kg BW, 6 h, 0.2 mg/kg): 6.19 ng/mL
Plasma concentration (capsule p.o. 0.2 mg/kg BW, 6 h, 0.2 mg/kg, in ng/mL): 20.30 and 16.23 and 18.02 and 15.34
Plasma concentration (capsule p.o. 0.2 mg/kg BW, 32 h, 0.2 mg/kg): BLOQ
Plasma concentration (capsule p.o. 0.2 mg/kg BW, 48 h): BLOQ
Plasma concentration (capsule p.o. 1 mg/kg BW, 48 h, 1 mg/kg): BLOQ
Plasma concentration (i.v. 1 mg/kg BW, 0.083 h, 1 mg/kg, in ng/mL): 1162.77 and 332.48 and 914.52 and 894.65 and 827.83 and 934.74
Plasma concentration (i.v. 1 mg/kg BW, 0.167 h, 1 mg/kg, in ng/mL): 1202.33 and 331.12 and 812.32 and 891.11 and 808.43 and 825.26
Plasma concentration (i.v. 1 mg/kg BW, 0.25 h, 1 mg/kg, in ng/mL): 1058.99 and 320.82 and 769.91 and 863.19 and 750.36 and 838.90
Plasma concentration (i.v. 1 mg/kg BW, 0.33 h, 1 mg/kg, in ng/mL): 996.69 and 292.96 and 774.12 and 852.52 and 723.28 and 760.14
Plasma concentration (i.v. 1 mg/kg BW, 0.5 h, 1 mg/kg, in ng/mL): 935.15 and 297.11 and 736.77 and 700.75 and 649.99 and 680.18
Plasma concentration (i.v. 1 mg/kg BW, 0.75 h, 1 mg/kg, in ng/mL): 709.09 and 236.62 and 633.10 and 524.38 and 509.94 and 541.50
